Source: patent publication US11352365B2, “Biased potent opioid-like agonists as improved medications to treat chronic and acute pain and methods of using the same” (THE UNITED STATES OF AMERICA, AS REPRESENTED BY THE …, priority 2018, dated 2022)
Read-outs that look alike come from different tables or passages of the source.

Columns and labels:
MOR [1] = biological target: T1, MOR (Homo sapiens, UniProt P35372); test: cell-based; format: cell-based; design: host or cells: U2OS-β-arrestin2-EFC-hMOR
Description: The PathHunter β-arrestin assay. The assay was performed according to the manufacturer's protocol (DiscoveRx) and as described previously. Briefly, 5000 U2OS-β-arrestin2-EFC-hMOR cells were plated in 384-well white plates with Opti-MEM media (Invitrogen) containing 1% FBS±pertussis toxin (100 ng/ml) overnight. The next day, cells were treated with compounds for 90 min at 37° C., followed by a 1-hour incubation of detection reagent at room temperature. Luminescence values were determined by using a Synergy HT luminometer (BioTek).

MOR [2] = biological target: T1, MOR; test: cell-based; format: cell-based; design: expressed in transfected cells; host or cells: CHO-hMOR (membrane variant); SH-SY5Y-hMOR also named
Description: Four thousand cells per well were split into 384-well low-volume plate (VWR) with Opti-MEM (Invitrogen) supplemented with 1% FBS for 3 hours at 37° C. except SH-SY5Y-hMOR cells, which were plated for 1 hour at 37° C. Cells were then treated with drugs, […] forskolin for 30 min at room temperature.
Cells were then homogenized by a Dounce homogenizer 15 times in an ice-cold buffer [50 mM Hepes (pH 7.4)], followed by centrifugation at 500 g at 4° C. for 5 min. The supernatant was transferred to a 1.5-ml tube on ice, and the pellet was resuspended, homogenized, and centrifuged at 500 g at 4° C. for 5 min. Then, the supernatant was combined and spun at 20,000 g at 4° C. for 10 min. The membrane pellet was resuspended in an ice-cold buffer [50 mM Hepes (pH 7.4)] at concentrations of […]. Membranes were stored at −80° C. until use. For forskolin-stimulated cAMP accumulation assay, membranes were diluted in an assay buffer (50 mM Hepes, 10 mM MgCl2, 100 mM NaCl, 200 mM adenosine 5′-triphosphate, 10 mM GTP, 100 mM 3-isobutyl-1-methylxanthine, 20 mM forskolin, and 30 mM bovine serum albumin) and plated at […] of protein in each well. Membranes were treated with test compounds for 30 min at room temperature. The cAMP levels were determined as per the manufacturer's instructions (Cisbio cAMP HiRange assay).

MOR [3] = biological target: T1, MOR; format: cell-based; design: expressed in transfected cells; host or cells: CHO-hMOR (membrane variant); SH-SY5Y-hMOR also named
δ opioid receptor = biological target: T2, δ opioid receptor (Rattus norvegicus, UniProt P33533); test: Binding assay, 3H DADLE, rat tissue; details: triplicate, read-out: 3H DADLE δ Ki ± SEM
T2 construct: from tissue; host or cells: rat tissue (per the earlier reading)

κ opioid receptor = biological target: T3, κ opioid receptor (Rattus norvegicus, UniProt P34975); test: Binding assay, 3H U69,593, rat tissue; details: rat tissue, triplicate; read-out: 3H U69,593 κ Ki ± SEM
T3 construct: from tissue; host or cells: rat tissue (per the earlier reading)

KOR [4] = biological target: T4, KOR (Homo sapiens, UniProt P41145); test: KOR cAMP agonist assay; format: cell-based; details: Table 1; read-out: KOR cAMP Agonist Potency ± SEM
KOR [5] = biological target: T4, KOR; test: KOR cAMP antagonist assay; format: cell-based
μ opioid receptor = μ opioid receptor (Rattus norvegicus, UniProt P33535); test: biochemical
δ and μ opioid receptors = test: In vitro potency ratio at δ and μ opioid receptors; format: cell-based
Male Swiss-Webster mice = test: Respiration rate and arterial oxygen saturation (MouseOx pulse oximeter) in conscious mice; details: for respiratory depression in mice: equi-analgesic dose range of morphine
Description: Measurement of respiration rate and arterial oxygen saturation. […] They were housed (five in a cage) in a temperature-controlled environment with a 12-hour light-dark cycle and were supplied with food and water ad libitum. Mice were acclimated for a week in the central animal facility before behavioral testing. On the day of the experiment, mice were brought to the room and acclimated for 45-60 min in the observation boxes. Respiration and oxygen saturation (SpO2) were measured using MouseOx Plus Rat and Mouse Pulse Oximeter (Starr Life Sciences Corp, Oakmont, USA) in conscious, freely moving animals. […] Mice were then placed into observation boxes and recording was started 5 min later to eliminate any anesthesia effect.
Data are expressed as mean±standard error of the mean (S.E.M.), and p<0.05 was accepted as statistically significant. GraphPad Prism, version 7, was used for data analysis.

MOR [6] = biological target: T1, MOR; design: host or cells: U2OS-β-arrestin2-EFC-hMOR; details: cited from earlier work
[7] = Table 3, read-out: MOR Mediated B-arrestin Recruitment
[8] = Table 3, inhibition of forskolin-induced cAMP accumulation, read-out: MOR cAMP Agonist Potency ± SEM
[9] = Table 3, read-out: MOR cAMP Agonist (% Efficacy) (converted)
[10] = Table 2, read-out: MOR Mediated B-arrestin Recruitment
[11] = Table 2, inhibition of forskolin-induced cAMP accumulation, read-out: MOR cAMP Agonist Potency ± SEM
[12] = Table 2, read-out: MOR cAMP Agonist (% Efficacy) (converted)
[13] = read-out: MOR Mediated B-arrestin Recruitment (% Control, Emax DAMGO), Table 2
[14] = Table 4, read-out: MOR cAMP Agonist Potency ± SEM

T4 sequence (P41145 whole entry): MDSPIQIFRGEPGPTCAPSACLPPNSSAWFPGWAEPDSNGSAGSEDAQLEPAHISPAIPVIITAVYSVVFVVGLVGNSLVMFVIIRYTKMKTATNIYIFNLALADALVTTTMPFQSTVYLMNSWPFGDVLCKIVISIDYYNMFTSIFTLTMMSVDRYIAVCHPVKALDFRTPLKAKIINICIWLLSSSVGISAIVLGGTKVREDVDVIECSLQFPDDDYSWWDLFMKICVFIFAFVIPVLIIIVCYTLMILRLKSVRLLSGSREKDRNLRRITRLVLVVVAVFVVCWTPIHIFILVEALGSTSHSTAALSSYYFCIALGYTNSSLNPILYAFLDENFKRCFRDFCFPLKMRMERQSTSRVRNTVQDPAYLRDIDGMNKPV
T1 sequence (P35372 whole entry): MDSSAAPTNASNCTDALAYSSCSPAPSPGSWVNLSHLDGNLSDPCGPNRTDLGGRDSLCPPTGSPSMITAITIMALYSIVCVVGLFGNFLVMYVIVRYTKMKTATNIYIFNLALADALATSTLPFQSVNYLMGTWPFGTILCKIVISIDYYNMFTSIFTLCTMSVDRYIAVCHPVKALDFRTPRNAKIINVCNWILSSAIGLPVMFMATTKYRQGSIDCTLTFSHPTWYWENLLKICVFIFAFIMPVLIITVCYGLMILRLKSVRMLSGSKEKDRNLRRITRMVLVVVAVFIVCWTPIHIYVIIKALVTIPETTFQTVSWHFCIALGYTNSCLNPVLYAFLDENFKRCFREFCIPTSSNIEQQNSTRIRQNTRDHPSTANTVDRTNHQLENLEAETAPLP
T2 sequence (P33533 whole entry): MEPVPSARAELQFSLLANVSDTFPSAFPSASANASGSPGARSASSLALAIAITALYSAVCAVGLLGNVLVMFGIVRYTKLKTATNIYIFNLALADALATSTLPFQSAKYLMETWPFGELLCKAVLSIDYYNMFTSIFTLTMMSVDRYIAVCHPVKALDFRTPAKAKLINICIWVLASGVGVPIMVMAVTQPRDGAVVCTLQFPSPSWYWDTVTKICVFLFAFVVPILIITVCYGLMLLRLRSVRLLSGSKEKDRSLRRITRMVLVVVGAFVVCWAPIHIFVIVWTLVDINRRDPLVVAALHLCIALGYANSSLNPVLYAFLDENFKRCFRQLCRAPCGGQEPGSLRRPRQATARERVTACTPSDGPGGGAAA
μ opioid receptor, sequence (P33535 whole entry): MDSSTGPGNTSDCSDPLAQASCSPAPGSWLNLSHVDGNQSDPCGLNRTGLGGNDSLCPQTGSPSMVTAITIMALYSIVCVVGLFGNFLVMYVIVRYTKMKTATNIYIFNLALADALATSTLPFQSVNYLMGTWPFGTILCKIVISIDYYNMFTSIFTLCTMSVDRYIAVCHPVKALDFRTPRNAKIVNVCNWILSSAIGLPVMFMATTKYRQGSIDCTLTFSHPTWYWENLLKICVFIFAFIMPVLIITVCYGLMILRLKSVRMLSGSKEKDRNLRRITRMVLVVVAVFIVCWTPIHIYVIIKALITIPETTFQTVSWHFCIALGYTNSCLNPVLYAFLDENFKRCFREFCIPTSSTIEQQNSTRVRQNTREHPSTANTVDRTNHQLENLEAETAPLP
T3 sequence (P34975 whole entry): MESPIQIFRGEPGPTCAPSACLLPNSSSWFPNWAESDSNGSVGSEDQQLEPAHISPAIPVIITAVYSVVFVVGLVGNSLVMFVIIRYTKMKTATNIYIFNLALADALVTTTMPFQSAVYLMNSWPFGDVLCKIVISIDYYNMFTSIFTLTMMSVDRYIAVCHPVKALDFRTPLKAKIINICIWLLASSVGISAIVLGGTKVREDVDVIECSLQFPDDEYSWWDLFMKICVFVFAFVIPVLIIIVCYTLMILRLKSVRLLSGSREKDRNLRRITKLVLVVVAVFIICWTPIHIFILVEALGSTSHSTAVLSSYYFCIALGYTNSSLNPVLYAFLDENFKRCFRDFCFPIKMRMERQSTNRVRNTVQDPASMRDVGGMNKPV

With `C[C@@H]1[C@@H]2CCC[C@@]1(c1cccc(O)c1)CCN2CCc1ccccc1` (single isomer, unassigned) [(−)-48] the EC50 (MOR [1]; [7]) was greater than 25000 nM and the EC50 (MOR [2]; [8]) was 12.1 ± 4.01 nM.

With `C[C@@H]1C2CCC[C@@]1(c1cccc(O)c1)CCN2CCc1ccccc1` (single isomer, unassigned; (-)) [(−)-48] the Emax (MOR [2]; [9]) was 71%.

With `OC[C@@H]1CC[C@@]2(c3cccc(O)c3)CCN(CCc3ccccc3)[C@H]1C2` (stereo in doubt) [Compound 35, 3-(8-(Hydroxymethyl)-2-phenethyl-2-azabicyclo[3.3.1]nonan-5-yl)phenol] the EC50 (MOR [1]; [10]) was greater than 25000 nM, the EC50 (MOR [2]; [11]) was 3.07 ± 2.2 nM and the Emax (MOR [2]; [12]) was 10.9%. The “Bias Factor” value (MOR [3]; Table 2) was 1254.

Work on `Oc1cccc([C@]23CCC[C@H]([C@H]2O)N(C[C@H]2C[C@@H]2c2ccccc2)CC3)c1` (stereo in doubt) [Compound 45, (1R,5S,9R)-5-(3-hydroxyphenyl)-2-((trans-2-phenylcyclopropyl)methyl)-2-azabicyclo[3.3.1]nonan-9-ol] yielded an EC50 (MOR [1]) of 22 nM, an Emax (MOR [1]; read-out: MOR Mediated B-arrestin Recruitment (% Control, Emax DAMGO)) of 22% and an EC50 (MOR [2]) of 0.12 nM. The Emax (MOR [2]; read-out: MOR cAMP Agonist (% Efficacy)) was 100% and the “Bias Factor” value (MOR [3]) was 6.1.

In the case of `Oc1cccc(C23CCC[C@H]([C@H]2O)N(C/C=C/c2ccccc2)CC3)c1` (stereo in doubt) [Compound 52, (1R,5R,9S)-2-Cinnamyl-5-(3-hydroxyphenyl)-2-azabicyclo[3.3.1]nonan-9-ol], the Emax (MOR [2]; [9]) is reported as 100% and the “Bias Factor” value (MOR [3]; Table 3) is reported as 27.120.

`C[C@H]1[C@H]2CCC[C@@]1(c1cccc(O)c1)CCN2CCc1ccccc1` [(+)-48] gave an EC50 (MOR [1]; [7]) of 7.72 ± 4.6 nM, an Emax (MOR [1]; read-out: MOR Mediated B-arrestin Recruitment (% Control, Emax DAMGO), Table 3) of 1.8% and an EC50 (MOR [2]; [8]) of 0.4 ± 0.12 nM. The Emax (MOR [2]; [9]) was 91% and the “Bias Factor” value (MOR [3]; Table 3) was 6.7.

With `C[C@@H]1[C@@H]2CCC[C@@]1(c1cccc(O)c1)CCN2CCc1ccccc1` [(−)-48] the “Bias Factor” value (MOR [3]; Table 3) was 2056.

`COC(=O)CC[C@H]1[C@@H]2CCC[C@@]1(c1cccc(O)c1)CCN2CCc1ccccc1` [Compound 8, Methyl 3-((1S,5R,9R)-5-(3-hydroxyphenyl)-2-phenethyl-2-azabicyclo[3.3.1]nonan-9-yl)propanoate] gave a Ki (δ opioid receptor) of 118 ± 7.41 nM, a Ki (κ opioid receptor) of 23.2 ± 3.11 nM and an EC50 (KOR [4]) greater than 10 µM. For the same compound, the “KOR cAMP Antagonist Potency ± SEM” value (KOR [5]; Table 1) was 2.0 ± 0.4 nM, the “activity at the kappa-receptor (in words)” value (KOR [5]; in vitro data) was “kappa-receptor antagonist” and the Ki (μ opioid receptor) was 0.9 ± 0.04 nM. The “beta-arrestin recruitment (in words)” value (MOR [1]) was “do not”, the EC50 (MOR [1]; Table 1, read-out: MOR Mediated β-arrestin Recruitment) was greater than 25000 nM and the Emax (MOR [1]; read-out: MOR Mediated β-arrestin Recruitment (% Control, Emax DAMGO), Table 1) was 0%.

For `CCC[C@H]1[C@@H]2CCC[C@@]1(c1cccc(O)c1)CCN2CCc1ccccc1` [Compound 15, 3-(2-Phenethyl-9-propyl-2-azabicyclo[3.3.1]nonan-5-yl)phenol], the EC50 (MOR [2]; [11]) was 0.95 ± 0.35 nM, the Emax (MOR [2]; [12]) was 63.3% and the “Bias Factor” value (MOR [3]; Table 2) was 23,442.

For `CCOC(=O)/C=C1\[C@H]2CCC[C@]1(c1cccc(O)c1)CCN2CCc1ccccc1` [Compound 26, Ethyl (Z)-2-(5-(3-hydroxyphenyl)-2-phenethyl-2-azabicyclo[3.3.1]nonan-9-ylidene)acetate], the Emax (MOR [1]; [13]) was 22.2%, the Emax (MOR [2]; [12]) was 100% and the “Bias Factor” value (MOR [3]; Table 2) was 179.

Compound `CCOC(=O)C[C@@H]1[C@H]2CCC[C@]1(c1cccc(O)c1)CCN2CCc1ccccc1` [Compound 27, Ethyl 2-(5-(3-hydroxyphenyl)-2-phenethyl-2-azabicyclo[3.3.1]nonan-9-yl)acetate] has an EC50 (MOR [1]; [10]) of 175 ± 42.6 nM, an Emax (MOR [1]; [13]) of 1.5% and an EC50 (MOR [2]; [11]) of 14.6 ± 3.99 nM. For the same compound, the Emax (MOR [2]; [12]) was 90.4% and the “Bias Factor” value (MOR [3]; Table 2) was 6.7.

`CCOC(=O)C[C@H]1[C@@H]2CCC[C@@]1(c1cccc(O)c1)CCN2CCc1ccccc1` [Compound 28, Ethyl 2-(5-(3-hydroxyphenyl)-2-phenethyl-2-azabicyclo[3.3.1]nonan-9-yl)acetate] showed an EC50 (MOR [1]; [10]) of 58.8 ± 34.7 nM, an Emax (MOR [1]; [13]) of 2.18% and an EC50 (MOR [2]; [11]) of 3.97 ± 1.8 nM. For the same compound, the Emax (MOR [2]; [12]) was 78% and the “Bias Factor” value (MOR [3]; Table 2) was 4.8.

With `OC/C=C/[C@H]1[C@@H]2CCC[C@@]1(c1cccc(O)c1)CCN2CCc1ccccc1` [Compound 37, 3-((1S,5R,9R)-9-((E)-3-Hydroxyprop-1-en-1-yl)-2-phenethyl-2-azabicyclo[3.3.1]nonan-5-yl)phenol] the EC50 (MOR [2]; [11]) was 2.31 ± 0.78 nM, the Emax (MOR [2]; [12]) was 33.5% and the “Bias Factor” value (MOR [3]; Table 2) was 6794.

In the case of `Oc1cccc2c1O[C@H]1CN(CCc3ccccc3)[C@H]3CCC[C@@]21C3` [Compound 70, (3S,6aR,11aR)-2-Phenethyl-1,3,4,5,6,11a-hexahydro-2H-3,6a-methano-benzofuro[2,3-c]azocin-10-ol], the EC50 (MOR [1]; [7]) is reported as greater than 25000 nM, the EC50 (MOR [2]; [8]) is reported as 0.5 ± 0.24 nM and the Emax (MOR [2]; [9]) is reported as 32.8%. The “Bias Factor” value (MOR [3]; Table 3) was 21454.

In the case of `O=C1CCC2C3Cc4ccc(O)c5c4[C@@]2(CCN3CCc2ccc(Cl)cc2)[C@H]1O5` (stereo partly drawn) [Compound 71, 3-(4-Chlorophenethyl)-9-hydroxy-2,3,4,4a,5,6-hexahydro-1H-4,12-methanobenzofuro[3,2-e]isoquinolin-7(7aH)-one], the “δ/μ ratio (in vitro potency ratio at δ and μ opioid receptors)” value (δ and μ opioid receptors) is reported as “approximately 1”, the “respiratory depression in mice” value (Male Swiss-Webster mice) is reported as “did not depress respiration” and the “effect on respiration rate (AUC 6 min to 45 min post injection) compared to saline” value (Male Swiss-Webster mice; mice, s.c., 0.01-0.1 mg/kg) is reported as “no effect on respiration rate”. It also gave an EC50 (MOR [1]; Table 4, read-out: MOR Mediated B-arrestin Recruitment) of 2.44 ± 0.45 nM, an Emax (MOR [1]; read-out: MOR Mediated B-arrestin Recruitment (% Control, Emax DAMGO), Table 4) of 44.8% and an Emax (MOR [2]; Table 4, read-out: MOR cAMP Agonist (% Efficacy) (converted)) of 98.8%. For the same compound, the EC50 (MOR [2]; [14]) was 0.05 ± 0.03 nM and the “Bias Factor” value (MOR [3]; Table 4) was 0.82.

In the case of `O=C1CCC2C3Cc4ccc(O)c5c4[C@@]2(CCN3CCc2ccc(Br)cc2)[C@H]1O5` (stereo partly drawn) [Compound 72, 3-(4-Bromophenethyl)-9-hydroxy-2,3,4,4a,5,6-hexahydro-1H-4,12-methanobenzofuro[3,2-e]isoquinolin-7(7aH)-one], the “δ/μ ratio (in vitro potency ratio at δ and μ opioid receptors)” value (δ and μ opioid receptors) is reported as “approximately 5”, the EC50 (MOR [2]; [14]) is reported as 0.15 ± 0.04 nM and the “agonist character at the mu-receptor (in words)” value (MOR [2]; in vitro data) is reported as “potent μ agonist”.

With `C[C@@H](NC(=O)[C@@H](N)Cc1ccc(O)cc1)C(=O)NCC(=O)N(C)[C@@H](Cc1ccccc1)C(=O)NCCO` [DAMGO, reference compound] the “Bias Factor” value (MOR [3]) was 1.

For `CN1CC[C@]23c4c5ccc(O)c4O[C@H]2[C@@H](O)C=C[C@H]3[C@H]1C5` [Morphine, reference compound], the “respiratory depression in mice” value (Male Swiss-Webster mice) was “did repress respiration”.

For `COc1ccsc1CNCC[C@@]1(c2ccccn2)CCOC2(CCCC2)C1` [TRV130], the “beta-arrestin recruitment (in words), noted for known compound” value (MOR [6]) is listed as “does recruit beta-arrestin slightly”.
